Values of other authors as cited in patent US6809181B2, “Human beta-defensin-3 (HBD-3), a highly cationic beta-defensin antimicrobial peptide” (University of Iowa Research Foundation, priority 2000, dated 2004).
In brackets after ≈: the same amount, converted by molar mass. Where two headings read alike, the source gives them in different places.

Experiments:
[1] = tested on: Staphylococcus aureus (methicillin susceptible); conditions: unit assumed, cited from earlier work
Campylobacter jejuni = conditions: cited from earlier work; for MIC50 / MIC90: unit assumed
[2] = tested on: Neisseria gonorrhoeae (β-lactamase producer); conditions: cited from earlier work
Enterococcus spp. = conditions: n=35, r52, cited from earlier work
Nocardia asteroides = conditions: n=78, r91, cited from earlier work
Listeria monocytogenes = conditions: cited from earlier work; for MIC50 / MIC90: unit assumed
Staphylococcus hominis = conditions: n=20; r122; unit assumed; cited from earlier work
Ureaplasma urealyticum = conditions: unit assumed, cited from earlier work
Corynebacterium JK = conditions: n=19; r46; unit assumed; cited from earlier work
Bacteroides fragilis = conditions: n=97, r7, cited from earlier work
[3] = tested on: Branhamella (Moraxella) catarrhalis (non β-lactamase producer); conditions: cited from earlier work
Haemophilus influenzae = conditions: cited from earlier work; for MIC50 / MIC90: unit assumed
[4] = tested on: Staphylococcus aureus (penicillin resistant); conditions: n=35, r98, cited from earlier work
[5] = tested on: Haemophilus parainfluenzae; conditions: n=13, r68, cited from earlier work
Bordetella pertussis = conditions: n=32; r10; unit assumed; cited from earlier work
Mycoplasma pneumoniae = conditions: cited from earlier work
[6] = tested on: Staphylococcus aureus (methicillin resistant); conditions: cited from earlier work
Neisseria meningitidis = conditions: n=19, r90, cited from earlier work
Enterococcus faecalis = conditions: cited from earlier work
Streptococcus pneumoniae = conditions: cited from earlier work; for MIC90: unit assumed
Streptococcus agalactiae = conditions: cited from earlier work
Streptococcus spp. = conditions: cited from earlier work; for MIC50 / MIC90: unit assumed
Streptococcus pyogenes = conditions: cited from earlier work
[7] = tested on: Haemophilus influenzae (β-lactamase producer); conditions: cited from earlier work
[8] = tested on: Haemophilus influenzae (penicillin resistant); conditions: n=20, r66, cited from earlier work

Compound: CC[C@H]1OC(=O)[C@H](C)[C@@H](O[C@H]2C[C@@](C)(OC)[C@@H](O)[C@H](C)O2)[C@H](C)[C@@H](O[C@@H]2O[C@H](C)C[C@H](N(C)C)[C@H]2O)[C@](C)(O)C[C@@H](C)C(=O)[C@H](C)[C@@H](O)[C@]1(C)O [ERYTHROMYCIN, erythromycin]
- MIC50 ([1]; n=20, r104): 0.5 µg/mL (≈ 0.681 µM)
- MIC90 ([1]; n=20, r104): 0.5 µg/mL (≈ 0.681 µM)
- MIC50 ([1]; n=28, r100): 0.25 µg/mL (≈ 0.341 µM)
- MIC90 ([1]; n=28, r100): 0.5 µg/mL (≈ 0.681 µM)
- MIC50 ([1]; n=97, r102): 0.25 µg/mL (≈ 0.341 µM)
- MIC50 (Campylobacter jejuni; n=16, r42): 0.25 µg/mL (≈ 0.341 µM)
- MIC90 (Campylobacter jejuni; n=16, r42): 2 µg/mL (≈ 2.73 µM)
- Range (Campylobacter jejuni; n=25, r41): 0.5-8
- MIC50 (Campylobacter jejuni; n=25, r41): 1 µg/mL (≈ 1.36 µM)
- MIC90 (Campylobacter jejuni; n=25, r41): 4 µg/mL (≈ 5.45 µM)
- Range ([2]; n=12, r86): 0.03-4
- Range ([2]; n=17, r88): 1-4
- Range (Enterococcus spp.): 0.06-32
- MIC50 (Enterococcus spp.; unit assumed): 2 µg/mL (≈ 2.73 µM)
- MIC90 (Enterococcus spp.; unit assumed): 32 µg/mL (≈ 43.6 µM)
- Range (Nocardia asteroides): 0.25-8
- MIC50 (Nocardia asteroides; unit assumed): 8 µg/mL (≈ 10.9 µM)
- MIC90 (Nocardia asteroides; unit assumed): 8 µg/mL (≈ 10.9 µM)
- Range (Listeria monocytogenes; n=13, r74): 0.5-1
- MIC50 (Listeria monocytogenes; n=13, r74): 0.5 µg/mL (≈ 0.681 µM)
- MIC90 (Listeria monocytogenes; n=13, r74): 0.5 µg/mL (≈ 0.681 µM)
- MIC50 (Listeria monocytogenes; n=16, r75): 0.25 µg/mL (≈ 0.341 µM)
- MIC90 (Listeria monocytogenes; n=16, r75): 1 µg/mL (≈ 1.36 µM)
- Range (Listeria monocytogenes; n=65, r76): 0.06-32
- MIC90 (Listeria monocytogenes; n=65, r76): 32 µg/mL (≈ 43.6 µM)
- MIC50 (Staphylococcus hominis): 64 µg/mL (≈ 87.2 µM)
- MIC50 (Ureaplasma urealyticum; n=19, r138): 16 µg/mL (≈ 21.8 µM)
- MIC90 (Ureaplasma urealyticum; n=19, r138): 32 µg/mL (≈ 43.6 µM)
- MIC50 (Ureaplasma urealyticum; n=28, r137): 2 µg/mL (≈ 2.73 µM)
- MIC50 (Corynebacterium JK): 2 µg/mL (≈ 2.73 µM)
- Range (Bacteroides fragilis): 0.25-16
- MIC50 (Bacteroides fragilis; unit assumed): 1 µg/mL (≈ 1.36 µM)
- MIC90 (Bacteroides fragilis; unit assumed): 8 µg/mL (≈ 10.9 µM)
- Range ([3]; n=14, r23): 0.06-1
- Range ([3]; n=16, r26): 0.015-1
- Range ([3]; n=40, r17): 0.06-0.5
- Range (Haemophilus influenzae; n=97, r55): 0.25-16
- MIC50 (Haemophilus influenzae; n=97, r55): 1 µg/mL (≈ 1.36 µM)
- MIC90 (Haemophilus influenzae; n=97, r55): 4 µg/mL (≈ 5.45 µM)
- Range (Haemophilus influenzae; n=145, r54): 0.5-8
- MIC50 (Haemophilus influenzae; n=145, r54): 2 µg/mL (≈ 2.73 µM)
- MIC90 (Haemophilus influenzae; n=145, r54): 2 µg/mL (≈ 2.73 µM)
- Range [4]: 0.25-32
- MIC50 ([4]; unit assumed): 0.25 µg/mL (≈ 0.341 µM)
- MIC90 ([4]; unit assumed): 32 µg/mL (≈ 43.6 µM)
- Range [5]: 0.5-8
- MIC50 ([5]; unit assumed): 2 µg/mL (≈ 2.73 µM)
- MIC90 ([5]; unit assumed): 4 µg/mL (≈ 5.45 µM)
- MIC50 (Bordetella pertussis): 0.25 µg/mL (≈ 0.341 µM)
- Range (Mycoplasma pneumoniae; n=10, r79): 0.06-8
- MIC90 (Mycoplasma pneumoniae; n=10, r79, unit assumed): 0.06 µg/mL (≈ 0.0818 µM)
- Range (Mycoplasma pneumoniae; n=14, r80): 0.004-0.03
- MIC50 (Mycoplasma pneumoniae; n=14, r80, unit assumed): 0.004 µg/mL (≈ 0.00545 µM)
- MIC90 (Mycoplasma pneumoniae; n=14, r80, unit assumed): 0.004 µg/mL (≈ 0.00545 µM)
- Range ([6]; n=15, r108): 64
- MIC50 ([6]; n=15, r108, unit assumed): 64 µg/mL (≈ 87.2 µM)
- Range ([6]; n=20, r110): 64
- MIC50 ([6]; n=20, r110, unit assumed): 64 µg/mL (≈ 87.2 µM)
- Range ([6]; n=30, r112): 0.06-32
- MIC50 ([6]; n=30, r112, unit assumed): 32 µg/mL (≈ 43.6 µM)
- MIC90 ([6]; n=30, r112, unit assumed): 32 µg/mL (≈ 43.6 µM)
- Range (Neisseria meningitidis): 0.5-8
- MIC50 (Neisseria meningitidis; unit assumed): 1 µg/mL (≈ 1.36 µM)
- MIC90 (Neisseria meningitidis; unit assumed): 8 µg/mL (≈ 10.9 µM)
- Range (Enterococcus faecalis; n=26, r47): 1-64
- MIC50 (Enterococcus faecalis; n=26, r47, unit assumed): 1 µg/mL (≈ 1.36 µM)
- MIC90 (Enterococcus faecalis; n=26, r47, unit assumed): 4 µg/mL (≈ 5.45 µM)
- Range (Enterococcus faecalis; n=50, r48): 0.06-64
- MIC50 (Enterococcus faecalis; n=50, r48, unit assumed): 4 µg/mL (≈ 5.45 µM)
- MIC50 (Enterococcus faecalis; n=86, r49, unit assumed): 1 µg/mL (≈ 1.36 µM)
- MIC50 (Enterococcus faecalis; n=97, r50, unit assumed): 2 µg/mL (≈ 2.73 µM)
- Range (Streptococcus pneumoniae; n=26, r129): 0.015-0.25
- MIC90 (Streptococcus pneumoniae; n=26, r129): 0.06 µg/mL (≈ 0.0818 µM)
- Range (Streptococcus pneumoniae; n=50, r127): 0.015-0.06
- MIC90 (Streptococcus pneumoniae; n=50, r127): 0.03 µg/mL (≈ 0.0409 µM)
- MIC90 (Streptococcus pneumoniae; n=50, r130): 0.06 µg/mL (≈ 0.0818 µM)
- Range (Streptococcus pneumoniae; n=58, r125): 0.03-0.25
- Range (Streptococcus agalactiae; n=20, r123): 0.03-0.25
- MIC50 (Streptococcus agalactiae; n=20, r123, unit assumed): 0.03 µg/mL (≈ 0.0409 µM)
- Range (Streptococcus agalactiae; n=34, r124): 0.015-0.06
- MIC50 (Streptococcus agalactiae; n=34, r124, unit assumed): 0.03 µg/mL (≈ 0.0409 µM)
- MIC90 (Streptococcus agalactiae; n=34, r124, unit assumed): 0.03 µg/mL (≈ 0.0409 µM)
- Range (Streptococcus spp.; n=22, r135): 0.015-0.25
- MIC50 (Streptococcus spp.; n=22, r135): 0.03 µg/mL (≈ 0.0409 µM)
- MIC90 (Streptococcus spp.; n=22, r135): 0.06 µg/mL (≈ 0.0818 µM)
- Range (Streptococcus spp.; n=107, r136): 0.004-2
- MIC50 (Streptococcus spp.; n=107, r136): 0.03 µg/mL (≈ 0.0409 µM)
- MIC90 (Streptococcus spp.; n=107, r136): 1 µg/mL (≈ 1.36 µM)
- Range (Streptococcus pyogenes; n=19, r131): 0.03-0.25
- Range (Streptococcus pyogenes; n=20, r132): 0.03-0.25
- Range (Streptococcus pyogenes; n=20, r134): 0.06-32
- MIC90 (Streptococcus pyogenes; n=20, r134, unit assumed): 32 µg/mL (≈ 43.6 µM)
- Range (Streptococcus pyogenes; n=33, r133): 0.015-0.03
- MIC50 (Streptococcus pyogenes; n=33, r133, unit assumed): 0.03 µg/mL (≈ 0.0409 µM)
- MIC90 (Streptococcus pyogenes; n=33, r133, unit assumed): 0.03 µg/mL (≈ 0.0409 µM)
- Range ([7]; n=17, r62): 0.25-4
- Range ([7]; n=46, r60): 0.06-8
- Range [8]: 8-16
- MIC50 ([8]; unit assumed): 8 µg/mL (≈ 10.9 µM)
- MIC90 ([8]; unit assumed): 16 µg/mL (≈ 21.8 µM)
